85 compounds from PubChem BioAssay AID720587 (Broad Institute, 2013) can be followed below.

This experiment concerns A673 Ewing sarcoma viability, CellTiter-Glo ATP luminescence, 72 h. The experiment can be described thus: EWS/Fli1-dependent A673 cell killing, confirmation, CellTiter-Glo luminescence, cherry-pick retest (AID 720587). Background: ATP-based viability assays read luminescence as a measure of living cells.
For the compound `Cc1ccccc1S(=O)(=O)N1CC[C@@H]2[C@@H](CO)Nc3ccc(-c4ccc(C#N)cc4)cc3[C@@H]21`, the AC35 is 4.47 µM.
Next, `O=C1c2ccccc2C(=O)N1CCCCNc1ccccc1`: 10.8 µM; `CC1(C(=O)NCc2ccco2)Cc2c(-c3cccc(C(N)=O)c3)ccnc2O1` (stereo not given): 5.1 µM; `CCCCCCCN(c1ccccc1)[C@@H]1C[C@H]2CCCC(=O)N3CC[C@@H](C1)[C@@H]23`: 10.2 µM.
In the case of `Cc1ccc(S(=O)(=O)N(C)C[C@@H]2Oc3ccc(NC(=O)CCCCCC(=O)Nc4ccccc4N)cc3CC(=O)N([C@@H](C)CO)C[C@@H]2C)cc1`, the AC35 was 15.3 µM.
Consider `O=c1oc2cc(O)ccc2s1`, for which the AC35 was 12.5 µM.
Next, `CCCCc1c(Cc2ccccc2)ncn1CCc1ccccc1OC`: 15 µM; `Nc1nc(N)c2c(ccc3nccc32)[nH]1`: 7.01 µM; `C[C@@H]1CN([C@@H](C)CO)C(=O)c2cc(NS(=O)(=O)c3ccccc3)ccc2O[C@@H]1CN(C)Cc1ccc(C(=O)Nc2ccccc2N)cc1`: 8.39 µM.
In the case of `CCN1/C(=C/C=C/c2oc3ccc(-c4ccccc4)cc3[n+]2CC)Oc2ccc(-c3ccccc3)cc21` it was 1.98 µM; in that of `CCN1C/C(=C/c2ccc(N3CCOCC3)cc2)C(=O)/C(=C/c2ccc(N3CCOCC3)cc2)C1`, 3.68 µM.
In the case of `O=c1ccc2ccccc2c2ccccc12` it was 6.04 µM; in that of `N#CC(=C1C=CC(=NO)C(Cl)=C1)c1ccccc1`, 5.59 µM.
Consider `O=C(Sc1cccc2cccnc12)c1ccccc1Br`, for which the AC35 is 1.17 µM.
Next, `C[C@@H]1CN([C@@H](C)CO)C(=O)c2cccc(N(C)C)c2O[C@@H]1CN(C)Cc1ccc(C(=O)Nc2ccccc2N)cc1`: 13.8 µM; `Nc1ccc(Cn2ccc3c4c(N)nc(N)nc4ccc32)cc1`: 0.0589 µM; `CN(C)c1ccc(-c2ccnc3c2CC(C)(C(=O)NCc2ccco2)O3)cc1` (stereo not given): 7.77 µM.
Next, `Cc1ccc(C(C)C)c(OCc2ccc(C(=O)N/N=C/c3ccc(O)cc3O)cc2)c1`: 0.296 µM; `C[C@@H]1CCCCO[C@H](CN(C)Cc2ccc(C(F)(F)F)cc2)[C@H](C)CN([C@H](C)CO)C(=O)c2cc(NC(=O)CCCN(C)C)ccc2O1`: 7.73 µM.
Next, `CCN1C/C(=C/c2ccc(OC)c(O)c2)C(=O)/C(=C/c2ccc(OC)c(O)c2)C1`: 11.1 µM.
In the case of `C[C@@H]1CN([C@H](C)CO)C(=O)c2cc(C#CCN(C)C)cnc2O[C@H]1CN(C)Cc1ccc(-c2ccccc2)cc1`, the AC35 was 10.2 µM.
Next, `CC(C)Oc1ccc(Br)cc1C(=O)N/N=C/c1c[nH]c2ccccc12`: 22.6 µM.
In the case of `CC(=NNc1cc(C)c2ccccc2n1)c1ccccn1` it was 0.417 µM; in that of `N#C[C@@H]1[C@H](c2ccc(C#Cc3ccc(F)cc3)cc2)[C@@H](CO)N1C(=O)Nc1ccc(F)cc1`, 12.3 µM; in that of `C(=Cc1nc2ccccc2o1)c1ccc2c(c1)OCO2`, 19 µM.
Next, `N=c1ccn2c(n1)O[C@H]1[C@H](O)[C@@H](CO)O[C@H]12`: 0.74 µM; `Oc1cccc(-c2nnc(-c3cccc(O)c3)nn2)c1`: 11.9 µM; `C[C@@H]1CN([C@H](C)CO)S(=O)(=O)c2ccc(C#CC(C)(C)O)cc2O[C@H]1CN(C)Cc1ccc(-c2ccccc2)cc1`: 7.19 µM.
As to `CCCCc1c(-c2ccccc2OC)ncn1Cc1ccc(C(C)(C)C)cc1`, the AC35 was 11.8 µM.
In the case of `CCN(CC)c1ccc(C2NC(=O)c3ccccc3N2)cc1` (stereo not given) it was 21.6 µM.
Take `O=c1cc(-c2ccccc2)oc2ccc3ccccc3c12`: the AC35 is 5.83 µM.
On to `COc1ccc(N=C2C(=O)Nc3ccc(C)c(Br)c32)cc1`, for which the AC35 was 17 µM.
Next, `O=C(N/N=C/c1cccs1)c1n[nH]c2c1CCCC2`: 17.7 µM.
In the case of `BrC(=C\c1ccccc1)/C=N/n1cnnc1` it was 2.23 µM; in that of `C[C@@H]1CN([C@@H](C)CO)C(=O)c2cccc(NS(=O)(=O)c3ccc(F)cc3)c2O[C@@H]1CN(C)Cc1ccc(C(=O)Nc2ccccc2N)cc1`, 8.41 µM.
Next, `COC(=O)c1ccccc1-c1c2ccc(=N)cc-2oc2cc(N)ccc12`: 3.64 µM.
On to `C[C@@H]1CN([C@@H](C)CO)C(=O)c2cc(NS(=O)(=O)c3ccc(Cl)cc3)ccc2O[C@@H]1CN(C)Cc1ccc(C(=O)Nc2ccccc2N)cc1`, for which the AC35 was 10.7 µM.
Next, `COc1ccc(NC(=S)N=Nc2c(O)[nH]c3ccccc23)cc1`: 1.75 µM; `C[C@@H]1CN([C@@H](C)CO)C(=O)c2cc(N(C)C)ccc2O[C@H]1CN(C)Cc1ccc(C(=O)Nc2ccccc2N)cc1`: 13.2 µM; `C(=NNc1ccc2ccccc2n1)c1ccccn1`: 0.514 µM.
In the case of `COc1ccc(OC)c(Cc2cnc3nc(N)nc(N)c3c2C)c1` it was 0.196 µM; in that of `COc1ccc(C(CCNCc2ccc(OC(C)C)cc2)C(C)C)cc1` (stereo not given), 12.6 µM.
In the case of `COc1ccc(NC(=O)N2CCCCN3[C@@H](CO)[C@H](c4ccc(C5=CCCCC5)cc4)[C@@H]3C2)cc1` it was 10.3 µM; in that of `Cc1c(Cl)cccc1NC(=O)CCC(=O)N/N=C/c1ccc[nH]1`, 6.52 µM.
Take `O=C(Nc1cccc(S(=O)(=O)N2CCCC2)c1)c1ccc(Cl)nc1`: the AC35 is 6.28 µM.
Regarding `O=C1c2ccccc2C(=O)c2cc(N3CCCCC3)ccc21`, the AC35 was 16.8 µM.
Next, `O=C(NCc1cccnc1)C1Cc2c(-c3ccc(Cl)cc3)ccnc2O1` (stereo not given): 7.98 µM; `COc1cc(-c2cnc3c(NC=O)cc(-c4cccc(NC(C)=O)c4)cn23)cc(OC)c1OC`: 0.371 µM.
Next, `COc1ccc(-c2cn(-c3ccc(OC)cc3)c3[n+]2-c2ccccc2CC3)cc1`: 13.6 µM; `CN(C)c1ccc(/C=N/Nc2nc3ccccc3o2)cc1`: 20.9 µM.
Next, `O=C(Nc1ccccc1F)N1CCCCN2[C@H](CO)[C@H](c3ccc(/C=C/c4ccccc4)cc3)[C@H]2C1`: 3.64 µM; `CC12CCC(O)CC1CCC1C2CCC2(C)C(C3=CC(=O)OC3)CCC12O` (stereo not given): 0.385 µM.
As for `C=C(C(=O)c1ccccc1)C(C)C(=C)C(=O)c1ccccc1`, the AC35 was 4.81 µM.
In the case of `COc1ccc(S(=O)(=O)N2CCCc3nc(-c4ccc(F)cc4)ccc32)cc1` it was 5.35 µM.
In the case of `CCCCNC(=O)C(c1ccc(OCC(=O)OC)c(C(=O)OC)c1)N(CCOC)C(=O)CCCCCN1C(=O)NC(c2ccc(-c3ccccc3)cc2)C(C(=O)OCc2ccccc2)=C1C` (stereo not given) it was 7.63 µM; in that of `CN1c2ccc(-c3ccc(C#N)cc3)cc2[C@H]2[C@H](CCN2S(=O)(=O)c2cccc(F)c2)[C@H]1CO`, 3.45 µM.
Turning to `Cn1ccc2cc(-c3ccc4ncnc(NCc5cccs5)c4c3)ccc21`, the AC35 is 4.58 µM.
Next, `Cc1c(CCOC(=O)CC23CC4CC(CC(C)(C4)C2)C3)sc[n+]1CC(=O)c1ccccc1`: 19.5 µM.
For `COC(=O)C[C@@H]1CC[C@H]2[C@H](COc3ccc(NC(=O)Nc4cc(C)cc(C)c4)cc3C(=O)N2C)O1`, the AC35 was 22.2 µM.
In the case of `CC(=O)Oc1ccc(-c2ccc(C(=O)Nc3cccc(S(=O)(=O)N4CCOCC4)c3)cc2)cc1` it was 15.3 µM.
Turning to `COc1ccc(C2c3cc4c(cc3OC(NNC(N)=O)C2C)OCO4)cc1` (stereo not given), the AC35 was 12.4 µM.
In the case of `C[C@H](CO)N1C[C@H](C)[C@H](CN(C)Cc2ccc(C(=O)Nc3ccccc3N)cc2)Oc2ccc(N(C)C)cc2CC1=O` it was 3.83 µM; in that of `CC(=O)OC1CC2(O)C3CCC4CC(O)CCC4(C)C3CCC2(C)C1C1=CC(=O)OC1` (stereo not given), 0.213 µM.
Next, `O=C(O)c1ccccc1C(=O)Nc1ccc(Oc2ccc3ccccc3c2)cc1`: 15.6 µM.
Next, `O=C1NC(=O)N(c2ccccc2)C(=O)/C1=C\C=C\c1ccccc1`: 4.03 µM; `COc1cc(C(=O)N2CCC(N3CCN(C)CC3)CC2)ccc1Nc1ncc2c(n1)N(C)c1ccccc1C(=O)N2C`: 10 µM.
`CN=c1scc(-c2cccs2)n1/N=C/c1ccccc1O`: the AC35 is 16.9 µM.
Next, `CNC[C@H](CC1CCCCC1)NC[C@H](CO)NCCc1cccc(C(F)(F)F)c1`: 9.23 µM; `Cc1sc2nc(CN3CCC(C)CC3)nc(Cl)c2c1C`: 10.7 µM.
`CN(C)C(=S)N=Nc1[nH]c2ccccc2c1O`: the AC35 is 11.1 µM.
Next, `O=C1NC(=S)NC(=O)C1=Cc1cccn1-c1ccc(O)cc1`: 17.7 µM.
In the case of `C[C@H]1CN([C@@H](C)CO)C(=O)c2cc(N(C)C)ccc2O[C@H]1CN(C)Cc1ccc(C(=O)Nc2ccccc2N)cc1` it was 8.84 µM; in that of `CC(C)N1C/C(=C/c2ccsc2)C(=O)/C(=C/c2ccsc2)C1`, 5.27 µM.
For `C[C@@H]1O[C@@H](O[C@@H]2C=C3CCC4C(CC[C@]5(C)[C@@H](c6ccc(=O)oc6)CC[C@]45O)[C@@]3(C)CC2)[C@H](O)[C@H](O)[C@H]1O` (stereo not given in full), the AC35 was 0.0136 µM.
In the case of `COc1ccc(-c2ccc3c(c2)[C@H]2[C@H](CCN2S(=O)(=O)c2ccc(OC)cc2)[C@@H](CO)N3C)cc1` it was 6.76 µM.
In the case of `CN(C[C@H]1N[C@@H](CO)[C@@H]1c1ccc(C2=CCCC2)cc1)C(=O)c1ccc(F)cc1` it was 4.19 µM; in that of `CN=c1scc(-c2ccccc2F)n1/N=C/c1ccc(O)c(O)c1O`, 11.6 µM.
Next, `COc1ccc(OC)c(-c2nnc3n2N=C(c2ccc(OC)c(OC4CCCC4)c2)CS3)c1`: 2.71 µM; `O=C(Nc1ccc(F)cc1)N1CCCCN2[C@@H](CO)[C@H](c3ccc(C4=CCCCC4)cc3)[C@@H]2C1`: 10.2 µM; `COc1ccc(S(=O)(=O)N2CC[C@@H]3[C@H](CO)Nc4ccc(-c5ccc(C#N)cc5)cc4[C@@H]32)cc1`: 4.23 µM.
Take `O=C(C[C@@H]1C[C@H]2c3cc(NS(=O)(=O)c4ccc(F)cc4)ccc3O[C@H]2[C@H](CO)O1)NCc1ccc(-c2ccccc2)cc1`: the AC35 was 4.21 µM.
Next, `Cc1ccc(N2C(=O)c3cccc4c(N)ccc(c34)C2=O)c2cccnc12`: 0.0576 µM; `C[C@@H]1O[C@@H](O[C@H]2C[C@@H](O)[C@]3(CO)[C@@H]4C(CC[C@]3(O)C2)[C@@]2(O)CC[C@H](C3COC(=O)C3)[C@@]2(C)C[C@H]4O)[C@H](O)[C@H](O)[C@H]1O` (stereo not given in full): 2.3 µM; `O=C(c1nnsc1S(=O)c1ccc(Cl)cc1)N1CCOCC1` (stereo not given): 5.46 µM.
In the case of `CCCCNC1=CC(=O)C(=O)c2ccccc21` it was 2.77 µM.
